From patent US9440987B2, “Aromatic ring compound” (TAKEDA PHARMACEUTICAL COMPANY LIMITED, priority 2012, dated 2016)

Tests used:
human MCHR1 [1] = target: T1, human MCHR1 (Homo sapiens, UniProt Q99705); assay: MCH receptor 1 antagonistic activity, Ca2+ mobilization assay in human MCHR1-expressing CHO cells (clone #4); format: cell-based; details: test compound 0.1 μM, ligand MCH(4-19) 2 nM, read-out: Inhibition rate % (0.1 μM)
T1 construct: expressed in transfected cells; host or cells: CHO cell clone 57 (membrane fraction)
T1 sequence (Q99705 whole entry): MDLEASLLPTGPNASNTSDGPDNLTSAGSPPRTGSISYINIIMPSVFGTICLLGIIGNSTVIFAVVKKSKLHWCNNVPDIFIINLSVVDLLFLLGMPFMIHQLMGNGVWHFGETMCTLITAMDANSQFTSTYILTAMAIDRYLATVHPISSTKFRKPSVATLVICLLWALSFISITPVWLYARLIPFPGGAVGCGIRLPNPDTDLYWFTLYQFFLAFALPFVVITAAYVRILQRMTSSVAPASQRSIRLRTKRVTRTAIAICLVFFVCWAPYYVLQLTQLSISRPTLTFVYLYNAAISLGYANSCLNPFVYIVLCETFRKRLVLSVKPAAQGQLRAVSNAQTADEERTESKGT
Description: Measurement of MCH Receptor 1 Antagonistic Activity of Test Compound Using Ca^2+ Mobilization Assay
Using an expression vector plasmid introduced with human MCHR1 gene for expression in animal cells, human MCHR1 gene was introduced into CHO cells (CHO dhfr^−) by Lipofectamine LTX (Invitrogen). The cells were cultured in selection MEMα medium [445 mL of MEMα medium without nucleic acid and added with 5 mL of Penicillin-Streptomycin (Invitrogen) and 50 mL of dialyzed fetal bovine serum]. Colony 24 clones grown in the selection medium, which were human MCHR1 gene-expressing CHO cell candidates, were selected. […] In the following test, this human MCHR1-expressing CHO cell (clone #4) was used. An integrated dispensing function fluorometer (CellLux, PerkinElmer) was used for Ca^2+ mobilization assay. The CHO cells were sown in a 96 well plate (type 3904, Corning) with a black wall and clear well bottom at a density of 20000 cells/well, and cultured in an incubator for about 24 hr at 5% CO2, 37° C. The medium was removed, and the cells were washed with phosphate buffered saline (PBS). A Ca^2+ indicator dye reagent (DOJINDO LABORATORIES, Ca screening no-wash kit Fluo4) was added at 100 μL/well, and the dye was allowed to penetrate into the cell for 30 min in an incubator at 5% CO2, 37° C. The plate was set on a plate reader. First, a test compound solution diluted with an assay buffer [10 mM HEPES (pH 7.4), 1× assay buffer containing 0.1% BSA (DOJINDO LABORATORIES, attached to Ca screening no-wash kit Fluo4)] or DMSO solution was added at 50 μL/well, and then ligand MCH (4-19) peptide (final concentration 2 nM) diluted with assay buffer or DMSO was added at 50 μL/well, during which changes in intracellular fluorescence were measured at 2 second intervals. […]
The inhibition rates (%) of test compounds (0.1 μM) as antagonist activity measured using human MCHR1-expressing CHO cells (clone #4) are shown in the following Table 3.

human MCHR1 [2] = target: T1, human MCHR1; assay: Human MCH receptor 1 (MCHR1) binding inhibitory activity, [125I]-MCH(4-19) binding assay with MCHR1-expressing CHO cellular membrane fraction; details: test compound 0.1 μM, human MCHR1-expressing CHO cell membrane, read-out: Binding inhibition rate % (0.1 μM)
Description: Using human MCHR1(=SLC-1 receptor)-expressing CHO cell clone 57 described in WO01/82925, MCHR1-expressing CHO cellular membrane fractions were prepared by the following method. […] Homogenate buffer (10 mL, 10 mM NaHCO3, 5 mM EDTA, pH 7.5, 0.5 mM PMSF (phenylmethylsulfonyl fluoride), 20 mg/L leupeptin, 4 mg/L E-64, 1 mg/L pepstatin A) was added to the pellets of the cells and, using Polytron Homogenizer, the mixture was homogenated. The supernatant obtained after centrifugation at 400×g for 10 min was further centrifuged at 100,000×g for 1 hr to give precipitate of the membrane fraction. The precipitate were suspended in 2 mL of assay buffer [20 mM Tris-HCl (pH 7.5), 5 mM EDTA, 0.5 mM PMSF, 20 mg/L leupeptin, 4 mg/L E-64, 1 mg/L pepstatin A]. The membrane fractions were suspended in assay buffer to a protein concentration of 2 mg/mL, and after dispensing, preserved at −80° C. and used upon thawing each time when in use. The MCHR1 ligand binding inhibitory activity of the test compound was determined as follows. An MCHR1-expressing CHO cellular membrane fraction (173 μL) diluted with an assay buffer was dispensed to a 96 well polypropylene plate (3363, Corning). […] Using a treating glass filter plate (GF/C, PerkinElmer) with polyethyleneimine, which had been previously set, the plate was suction-filtered and washed three times with washing buffer (50 mM Tris-HCl buffer pH 7.5). The glass filter plate was dried, MicroScinti0 (PerkinElmer) was added at 25 μL/well, and the resulting radioactivity was measured by TopCount liquid scintillation counter (PerkinElmer). The binding inhibition rate of the test compound was calculated by the following formula.

Compound	inhibition at 0.1 µM (human MCHR1 [1]) [%]	inhibition at 0.1 µM (human MCHR1 [2]) [%]
Cc1c(C2CC2)nc2ccc(-n3ccc4oc(-c5ccc(Cl)cc5)cc4c3=O)cn12 [Example 1, 2-(4-Chlorophenyl)-5-(2-cyclopropyl-3-methylimidazo[1,2-a]pyridin-6-yl)furo[3,2-c]pyridin-4(5H)-one]	82	100
Cn1c(C2CC2)nc2ccc(-n3ccc4oc(-c5ccc(Cl)cc5)cc4c3=O)cc21 [Example 2, 2-(4-Chlorophenyl)-5-(2-cyclopropyl-1-methyl-1H-benzimidazol-6-yl)furo[3,2-c]pyridin-4(5H)-one]	70	79
Cn1c([C@H]2C[C@H]2C(C)(C)O)nc2ccc(-n3ccc4oc(-c5ccc(Cl)cc5)cc4c3=O)cc21 (racemic) [Example 4, 2-(4-Chlorophenyl)-5-(2-((1RS,2SR)-2-(2-hydroxypropan-2-yl)cyclopropyl)-1-methyl-1H-benzimidazol-6-yl)furo[3,2-c]pyridin-4(5H)-one]		91
Cc1c(C2CC2)nc2ccc(-n3ccc4oc(-c5ccc(Cl)cn5)cc4c3=O)cn12 [Example 3, 2-(5-Chloropyridin-2-yl)-5-(2-cyclopropyl-3-methylimidazo[1,2-a]pyridin-6-yl)furo[3,2-c]pyridin-4(5H)-one]	92	74
